Measurements published in US8815875B2 (Merck Sharp & Dohme Corp., priority 2008, dated 2014).

target: FABP4 (Homo sapiens, UniProt P15090); assay: TdF (Temperature Dependence Fluorescence) assay, thermal shift, FABP4; type: binding
Text: TdF (Temperature Dependence Fluorescence) Assay for FABP3 and FABP4
The TdF assay was mainly conducted in the 96-well based CHROMO-4 real time fluorescence plate reader (BioRad). The Sypro Orange (Sigma-Aldrich), environmentally sensitive fluorescence dye, was used to monitor the protein folding-unfolding transition. Protein-ligand binding was gauged by the change (or shift) in the unfolding transition temperature (ΔTm) acquired at protein alone with respect to protein in the presence of ligand of interest.
The compound of interest was first prepared in DMSO stock (typical concentration: 10 mM). […] Final percentage of DMSO resided in the sample was 2%. The sample plate was heated from 30° C. to 90° C. with thermal ramping rate of 1° C./min. The fluorescence signals were acquired with excitation and emission wavelengths centered at 490 and 560 nm respectively. The instrument thermal stability was ±0.2° C.
Theoretical basis for TdF-based ligand binding affinity constant
In brief, the binding constant of the ligand at the Tm is expressed as below:
[formula] where To is the midpoint of unfolding for unliganded protein and Tm is the midpoint of unfolding in presence of ligand. [LTm] is free ligand at Tm. The ΔHu and ΔCpu are the enthalpy of unfolding and heat capacity change of unfolding for the protein respectively.
The nonlinear regression fitting in general readily reaches convergence by properly constraining the initial values for the fitting parameters (e.g. the initial “guess” for the ΔHu was constrained to 120 kcal/mol; initial Yn and mn were set to 1 and zero to best represent the melting curve along the low temperature region; negative slope of −0.5 was initially chosen for mu; initial Tm was also constrained to 50° C.).
[formula] (see Brandts et al and Mayhood et al, shown above) where ΔHL (T) is the van't Hoff enthalpy of ligand binding at temperature T and ΔCpL is the heat capacity upon ligand binding. For simplicity, the ΔCpL and ΔHL (T) were set to zero and −7 kcal/mol respectively. […] TdCD (Temperature-dependent Circular Dichroism) Assay for FABP3/4/5

Sequence of FABP4 (P15090 whole entry, species assumed): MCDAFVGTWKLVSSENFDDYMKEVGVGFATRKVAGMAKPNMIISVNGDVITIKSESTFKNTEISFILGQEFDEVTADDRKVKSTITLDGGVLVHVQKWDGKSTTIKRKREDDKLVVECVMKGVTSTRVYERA

| SMILES | FABP4 TdF Kd | Kd |
| --- | --- | --- |
| Cc1c(Br)cccc1OCc1cc(=O)n2nc(-c3ccccc3)nc2[nH]1 [1-84] | B (0.5 ≦ B < 0.001 μM) | – |
| Cc1c(OCc2cc(=O)n3nc(-c4ccccc4)nc3[nH]2)cccc1C(F)(F)F [1-85] | B (0.5 ≦ B < 0.001 μM) | – |
| O=c1cc(COc2cc(Cl)cc(Cl)c2)[nH]c2nc(-c3ccccc3)nn12 [1-86] | B (0.5 ≦ B < 0.001 μM) | – |
| O=c1cc(COc2cc(Cl)cc(Cl)c2Cl)[nH]c2nc(-c3ccccc3)nn12 [1-87] | B (0.5 ≦ B < 0.001 μM) | – |
| O=c1cc(COc2ccc(Cl)c(F)c2)[nH]c2nc(-c3ccccc3)nn12 [1-94] | B (0.5 ≦ B < 0.001 μM) | – |
| CC1(C)CC(OCc2cc(=O)n3nc(-c4ccccc4)nc3[nH]2)CC(C)(C)C1 [1-97] | B (0.5 ≦ B < 0.001 μM) | – |
| CC1CC(OCc2cc(=O)n3nc(-c4ccccc4)nc3[nH]2)CC(C)(C)C1 (stereo not drawn) [1-99] | B (0.5 ≦ B < 0.001 μM) | – |
| CC1(C)CCCC(C)(C)C1OCc1cc(=O)n2nc(-c3ccccc3)nc2[nH]1 [1-102] | – | > 0.5 µM |
| O=c1cc(CO[C@@H]2C[C@H]3CC[C@@H]2C3)[nH]c2nc(-c3ccccc3)nn12 [1-107] | B (0.5 ≦ B < 0.001 μM) | – |
| O=c1cc(CO[C@H]2C[C@H]3CC[C@@H]2C3)[nH]c2nc(-c3ccccc3)nn12 [1-108] | B (0.5 ≦ B < 0.001 μM) | – |
| C[C@@H]1C[C@@H](OCc2cc(=O)n3nc(-c4ccccc4)nc3[nH]2)CC(C)(C)C1 [1-110] | B (0.5 ≦ B < 0.001 μM) | – |
| C[C@@H]1C[C@H](OCc2cc(=O)n3nc(-c4ccccc4)nc3[nH]2)CC(C)(C)C1 [1-111] | B (0.5 ≦ B < 0.001 μM) | – |
| Cc1ccsc1-c1nc2[nH]c(COc3cccc(Cl)c3C)cc(=O)n2n1 [1-113] | – | > 0.5 µM |
| Cc1ccoc1-c1nc2[nH]c(COc3cccc(Cl)c3C)cc(=O)n2n1 [1-115] | – | > 0.5 µM |

Next, values leading:

| FABP4 TdF Kd | Kd | SMILES |
| --- | --- | --- |
| B (0.5 ≦ B < 0.001 μM) | – | O=c1cc(CN2CCc3ccc(Cl)cc32)[nH]c2nc(-c3ccccc3)nn12 [1-83] |
| B (0.5 ≦ B < 0.001 μM) | – | O=c1cc(COc2cccc(Cl)c2)[nH]c2nc(-c3ccccc3)nn12 [1-88] |
| – | > 0.5 µM | O=c1cc(CN2CCC(Cc3cccc(F)c3)C2)[nH]c2nc(-c3ccccc3)nn12 (stereo not drawn) [1-89] |
| – | > 0.5 µM | Cn1ccc(NCc2cc(=O)n3nc(-c4ccccc4)nc3[nH]2)n1 [1-90] |
| – | > 0.5 µM | O=c1cc(CN2CCC(c3cccc(Cl)c3)C2)[nH]c2nc(-c3ccccc3)nn12 (stereo not drawn) [1-91] |
| – | > 0.5 µM | O=c1cc(CN2CCC(Cc3ccccc3F)C2)[nH]c2nc(-c3ccccc3)nn12 (stereo not drawn) [1-92] |
| B (0.5 ≦ B < 0.001 μM) | – | O=c1cc(COc2cccc(F)c2)[nH]c2nc(-c3ccccc3)nn12 [1-93] |
| – | > 0.5 µM | CC1(C)CCC(=O)N(Cc2cc(=O)n3nc(-c4ccccc4)nc3[nH]2)C1 [1-95] |
| – | > 0.5 µM | CCC1(OCc2cc(=O)n3nc(-c4ccccc4)nc3[nH]2)CCCCC1 [1-96] |
| – | > 0.5 µM | CN1CCc2c(cccc2OCc2cc(=O)n3nc(-c4ccccc4)nc3[nH]2)C1 [1-98] |
| – | > 0.5 µM | O=c1cc(CN2CCn3c(nnc3C3CC3)C2)[nH]c2nc(-c3ccccc3)nn12 [1-101] |
| – | > 0.5 µM | O=c1cc(CN2CCCC2Cc2ccncn2)[nH]c2nc(-c3ccccc3)nn12 (stereo not drawn) [1-103] |
| – | > 0.5 µM | Cc1cnc2cccc(NCc3cc(=O)n4nc(-c5ccccc5)nc4[nH]3)n12 [1-104] |
| – | > 0.5 µM | Cn1cc2cccc(NCc3cc(=O)n4nc(-c5ccccc5)nc4[nH]3)c2n1 [1-105] |
| – | > 0.5 µM | Cn1ncc2cccc(NCc3cc(=O)n4nc(-c5ccccc5)nc4[nH]3)c21 [1-106] |
| – | > 0.5 µM | O=c1cc(CN2CCn3c(Br)nnc3C2)[nH]c2nc(-c3ccccc3)nn12 [1-109] |
| – | > 0.5 µM | O=c1cc(CN2CCCC2Cc2cccnc2)[nH]c2nc(-c3ccccc3)nn12 (stereo not drawn) [1-112] |
| B (0.5 ≦ B < 0.001 μM) | – | O=c1cc(COc2ccccc2Cl)[nH]c2nc(-c3ccccc3)nn12 [1-118] |
| B (0.5 ≦ B < 0.001 μM) | – | O=c1cc(CN2CCCC2Cc2c(F)cccc2Cl)[nH]c2nc(-c3ccccc3)nn12 (stereo not drawn) [1-131] |
